Data reported in patent US20200271654A1, “Quantifying MGMT Protein For Optimal Cancer Therapy” (Expression Pathology, Inc., priority 2017, published 2020).

Tested on: advanced colorectal cancer (CRC)
Assay: Survival of advanced colorectal cancer patients treated with temozolomide, stratified by tumor MGMT protein level (SRM mass spectrometry)
Format: in vivo
Details: for median progression-free survival (PFS): treated with temozolomide
Description: 24 patients from Fondazione IRCCS Istituto Nazionale dei TumoriVia Venezian, Milan, Italy, were identified with advanced colorectal cancer (CRC). Tumors were surgically removed prior to treatment and archived as formalin-fixed, paraffin-embedded (FFPE) tissue and all were histologically colorectal cancer. All 24 patients were subsequently treated with temozolomide.
Archived formalin-fixed, paraffin-embedded tissue sections were obtained from patients with advanced CRC treated with temozolomide (n=24). A board-certified pathologist marked the tumor areas. Based on the markups, tumor cells were laser microdissected and solubilized to tryptic peptides using the Liquid Tissue process. In each liquefied sample, multiple protein biomarkers including MGMT were quantified by selected reaction monitoring (SRM) mass spectrometry (MS). A mixture of stable isotope-labeled heavy peptides including the MGMT fragment peptide TTLDSPLGK was added prior to MS analysis. Each sample was analyzed in triplicate. […] The Mantel-Cox log-rank and Gehan-Breslow-Wilcoxon tests were used for survival comparisons.

## Cn1nnc2c(C(N)=O)ncn2c1=O [temozolomide]
CRC patients with MGMT levels above cutoff of 200 amol/μg
  median progression-free survival (PFS): 1.6 months
CRC patients with MGMT protein levels below cutoff of 200 amol/μg (n=11), p=0.0611 vs above cutoff
  median progression-free survival (PFS): 4.3 months
Cutoff 200 amol/μg, temozolomide-treated CRC patients
  ratio of median progression-free survival, MGMT below cutoff vs above cutoff: approximately 2.5 times
